Measurements from PMC9501548, “Synthesis of Potential Antiviral Agents for SARS-CoV-2 Using Molecular Hybridization Approach” (Molecules, 2022).
Where “and” joins values, the source holds several entries; their conditions need not be identical. Equal entries are not always repeated. Where two headings read alike, the source gives them in different places.

Experiments:
[1] = in vitro; conditions: Chlorocebus aethiops (African green monkey)
[2] = test system: SARS-CoV-2 (hCoV-19/Egypt/NRC-03/2020); test: Anti-SARS-CoV-2 IC50 determination in Vero-E6 cells (inhibition of virus-induced cytopathic effect, crystal violet); type: cell-based; conditions: for IC50: Severe acute respiratory syndrome coronavirus 2, Vero C1008, SARS-CoV-2 in Vero-E6 cells, 72 h, CPE reduction; for SI: selectivity index, ratio of CC50 relative to IC50
[3] = test system: VERO-E6 cells; set-up: method as in PMID 34775204; conditions: standard reference; cited from earlier work
[4] = test system: SARS-CoV-2 (hCoV-19/Egypt/NRC-03/2020); set-up: method as in PMID 34775204; conditions: standard reference, cited from earlier work

Row | Compound | melting point [°C] | CC50 at 24 h [1] | IC50 [2] | SI [2] | CC50 [3] [µM] | IC50 ([4]; anti-SARS-CoV-2) [µM] | SI ([4]; ratio of CC50 relative to IC50)
1 | O=C1C(=Cc2cn(CCCOc3cc(C(F)(F)F)nc4ccccc34)c3ccccc23)SC(=S)N1CCc1ccccc1 (mixture of isomers) [9a, (E/Z)-3-Phenethyl-2-thioxo-5-((1-(3-((2-(trifluoromethyl)quinolin-4-yl)oxy)propyl)-1H-indol-3-yl)methylene)thiazolidin-4-one] | 185 to 187 | 210 µg/mL | – | – | – | – | –
2 | O=C1C(=Cc2cn(CCCOc3cc(C(F)(F)F)nc4ccc(Cl)cc34)c3ccccc23)SC(=S)N1CCc1ccccc1 (mixture of isomers) [9b, (E/Z)-5-((1-(3-((6-Chloro-2-(trifluoromethyl)quinolin-4-yl)oxy)propyl)-1H-indol-3-yl)methylene)-3-phenethyl-2-thioxothiazolidin-4-one] | 176 to 179 | 227 µg/mL | – | – | – | – | –
3 | Cc1ccc2nc(C(F)(F)F)cc(OCCCn3cc(C=C4SC(=S)N(CCc5ccccc5)C4=O)c4ccccc43)c2c1 (mixture of isomers) [9c, (E/Z)-5-((1-(3-((6-Methyl-2-(trifluoromethyl)quinolin-4-yl)oxy)propyl)-1H-indol-3-yl)methylene)-3-phenethyl-2-thioxothiazolidin-4-one] | 182 to 184 | 310 µg/mL | – | – | – | – | –
4 | O=C1C(=Cc2cn(CCCCOc3cc(C(F)(F)F)nc4ccccc34)c3ccccc23)SC(=S)N1CCc1ccccc1 (mixture of isomers) [9d, (E/Z)-3-Phenethyl-2-thioxo-5-((1-(4-((2-(trifluoromethyl)quinolin-4-yl)oxy)butyl)-1H-indol-3-yl)methylene)thiazolidin-4-one] | 157 to 159 | 294 µg/mL and 465 µM | 257 µg/mL and 407 µM | 1.1 | – | – | –
5 | O=C1C(=Cc2cn(CCCCOc3cc(C(F)(F)F)nc4ccc(F)cc34)c3ccccc23)SC(=S)N1CCc1ccccc1 (mixture of isomers) [9e, (E/Z)-5-((1-(4-((6-Fluoro-2-(trifluoromethyl)quinolin-4-yl)oxy)butyl)-1H-indol-3-yl)methylene)-3-phenethyl-2-thioxothiazolidin-4-one] | 160 to 162 | 305 µg/mL and 469 µM | 276 µg/mL and 424 µM | 1.1 | – | – | –
6 | O=C1C(=Cc2cn(CCCCOc3cc(C(F)(F)F)nc4ccc(Cl)cc34)c3ccccc23)SC(=S)N1CCc1ccccc1 (mixture of isomers) [9f, (E/Z)-5-((1-(4-((6-Chloro-2-(trifluoromethyl)quinolin-4-yl)oxy)butyl)-1H-indol-3-yl)methylene)-3-phenethyl-2-thioxothiazolidin-4-one] | 181 to 183 | 370 µg/mL and 555 µM | 109 µg/mL and 164 µM | 3.4 | – | – | –
7 | Cc1ccc2nc(C(F)(F)F)cc(OCCCCn3cc(C=C4SC(=S)N(CCc5ccccc5)C4=O)c4ccccc43)c2c1 (mixture of isomers) [9g, (E/Z)-5-((1-(4-((6-Methyl-2-(trifluoromethyl)quinolin-4-yl)oxy)butyl)-1H-indol-3-yl)methylene)-3-phenethyl-2-thioxothiazolidin-4-one] | 175 to 177 | 591 µg/mL | – | – | – | – | –
8 | O=C1C(=Cc2cn(CCCCCCOc3cc(C(F)(F)F)nc4ccccc34)c3ccccc23)SC(=S)N1CCc1ccccc1 (mixture of isomers) [9h, (E/Z)-3-Phenethyl-2-thioxo-5-((1-(6-((2-(trifluoromethyl)quinolin-4-yl)oxy)hexyl)-1H-indol-3-yl)methylene)thiazolidin-4-one] | 180 to 182 | 258 µg/mL | – | – | – | – | –
9 | O=C1C(=Cc2cn(CCCCCCOc3cc(C(F)(F)F)nc4ccc(F)cc34)c3ccccc23)SC(=S)N1CCc1ccccc1 (mixture of isomers) [9i, (E/Z)-5-((1-(6-((6-Fluoro-2-(trifluoromethyl)quinolin-4-yl)oxy)hexyl)-1H-indol-3-yl)methylene)-3-phenethyl-2-thioxothiazolidin-4-one] | 185 to 187 | 262 µg/mL | – | – | – | – | –
10 | O=C1C(=Cc2cn(CCCCCCOc3cc(C(F)(F)F)nc4ccc(Cl)cc34)c3ccccc23)SC(=S)N1CCc1ccccc1 (mixture of isomers) [9j, (E/Z)-5-((1-(6-((6-Chloro-2-(trifluoromethyl)quinolin-4-yl)oxy)hexyl)-1H-indol-3-yl)methylene)-3-phenethyl-2-thioxothiazolidin-4-one] | 184 to 186 | 380 µg/mL | – | – | – | – | –
11 | Cc1ccc2nc(C(F)(F)F)cc(OCCCCCCn3cc(C=C4SC(=S)N(CCc5ccccc5)C4=O)c4ccccc43)c2c1 (mixture of isomers) [9k, (E/Z)-5-((1-(6-((6-Methyl-2-(trifluoromethyl)quinolin-4-yl)oxy)hexyl)-1H-indol-3-yl)methylene)-3-phenethyl-2-thioxothiazolidin-4-one] | 148 to 150 | 201 µg/mL and 299 µM | 160 µg/mL and 238 µM | 1.3 | – | – | –
12 | O=C1C(=Cc2cn(C/C=C/COc3cc(C(F)(F)F)nc4ccccc34)c3ccccc23)SC(=S)N1CCc1ccccc1 (mixture of isomers) [10a, (E/Z)-3-Phenethyl-2-thioxo-5-((1-((E)-4-((2-(trifluoromethyl)quinolin-4-yl)oxy)but-2-en-1-yl)-1H-indol-3-yl)methylene)thiazolidin-4-one] | 179 to 181 | 370 µg/mL | – | – | – | – | –
13 | Cc1ccc2nc(C(F)(F)F)cc(OC/C=C/Cn3cc(C=C4SC(=S)N(CCc5ccccc5)C4=O)c4ccccc43)c2c1 (mixture of isomers) [10b, (E/Z)-5-((1-((E)-4-((6-Methyl-2-(trifluoromethyl)quinolin-4-yl)oxy)but-2-en-1-yl)-1H-indol-3-yl)methylene)-3-phenethyl-2-thioxothiazolidin-4-one] | 168 to 170 | 290 µg/mL | – | – | – | – | –
14 | CCN(CCO)CCCC(C)Nc1ccnc2cc(Cl)ccc12 (stereo not shown) [Hydroxychloroquine] | – | – | – | – | 356 | 29.2 | 12.2
